Reference: US9994536B2, “Compounds and methods of treating neurological disorders” (TORREY PINES INSTITUTE FOR MOLECULAR STUDIES, priority 2014, dated 2018)

How the values were obtained:
sAPPα [1] = experiment: sAPPα ELISA, NT2 cells stably expressing APP751; format: cell-based, human; settings: 24 h
Experimental: (§1) (5). To confirm the effect of THPI-244 on sAPPα levels in a neuronal cell line and by a tertiary assay, we exposed human Neuron-committed Teratocarcinoma cell line (NT2) stably expressing human APP751 to different concentrations of THPI-244 for 24 h and compared with that of Bryostatin, a classical activator of PKC known to stimulate sAPPα release. […] Levels of sAPPα were measured by ELISA using commercially available kit (cat #27734, IBL-America, Minneapolis, Minn., USA). […] Similar biphasic effect of Bryostatin was confirmed for Aβ42 also, measured again in NT2 stable cells by ELISA (cat #KHB3441, Life Technologies, Grand Island, N.Y., USA). Consistent with sAPPα, THPI-244 decreased Aβ42 levels dose-dependently starting from 50 nM (28%, p<0.05) to 2000 nM (64%, p<0.001) (n=4 independent experiments) (FIG. 1.7). Thus THPI-244 increased non-amyloidogenic processing of APP in NT2 cells.

Aβ42 = Aβ42 ELISA, NT2 stable cells; format: cell-based, human
Experimental: as §1

sAPPα [2] = experiment: sAPPα ELISA, fibroblasts derived from AD patients; format: cell-based, human; settings: 24 h
Experimental: (1). […] Therefore, we first used fibroblasts derived from AD patients (AG06263C, Coriell Cell repository, supported by NINDS/NIH) and exposed to THPI-244 for 24 h and measured sAPPα release by ELISA as done above for NT2 cells. […] We also confirmed dose-dependent effect of THPI-244 on sAPPα levels in human primary neurons transiently transfected with APP751 with Swedish mutation which is trafficked differently from WT APP and releases more sAPPα. Human neurons were grown on specially coated glass coverslips (cat #GG-18-PDL, NeuVitro, Germany). We could reproducibly achieve nearly 30% transfection efficiency using a nanoparticle based transfection reagent called Neuromag (cat #NM150299, OZ Biosciences, France).

[3] = system: soluble APPα, soluble APPβ, Aβ; experiment: APP processing blots after SAHA, 7WD10 cells; format: cell-based
Experimental: (§2) Western blot sAPPα release assay. 7WD10 cells were grown in 6-well plates and treated with test compounds and SAHA (vorinostat) at several concentrations in duplicate wells. After 24 h of drug exposure, the conditioned media (CM) was collected, centrifuged to remove cell debris and subjected to SDS-PAGE electrophoresis. sAPPα (6E10, mouse IgG from IBL America ltd) was detected using indicated antibody. To detect APP-FL holoprotein and C-terminal fragments (CTFs, CT15 antibody), the cells were lysed using lysis buffer (1% NP40) with complete protease inhibitor mix (Sigma) supplemented with sodium vanadate and microcystine. Samples were subjected to SDS-PAGE, transferred and immunoblotted with indicated antibodies and detected by enhanced chemiluminescence method. Quantification of Western blot signals was done using ImageJ software.
We utilized a commercially available AlphaLISA detection kit to develop an HTS assay for identification of compounds that increase sAPPα production in CHO cells stably expressing APP751 (7WD10 cells) (FIG. 2.1B). There are several cell lines that have been used extensively in Alzheimer's disease research. […] We have analyzed both 7WD10 and NT2 cells for expression of the hallmark proteins of Alzheimer's disease: soluble APPα, soluble APPβ, Arβ, and membrane-bound full length APP (APP-FL). […]

[4] = system: soluble APPα, soluble APPβ, Aβ; experiment: APP processing blots after SAHA, NT2 cells; format: cell-based, human
Text: We utilized a commercially available AlphaLISA detection kit to develop an HTS assay for identification of compounds that increase sAPPα production in CHO cells stably expressing APP751 (7WD10 cells) (FIG. 2.1B). There are several cell lines that have been used extensively in Alzheimer's disease research. For example, NT2 cells are highly used in AD basic and drug discovery research because they are derived from a human embryonal carcinoma cell line and they can be differentiated into post-mitotic neuron-like cells that develop functional dendrites and axons resembling primary neurons of the human brain [39]. NT2 cells also synthesize amyloid precursor protein important in Alzheimer's disease. However, the rate of growth of NT2 cells is much slower than rate of growth of 7WD10s cells, which makes them less HTS-amenable. We have analyzed both 7WD10 and NT2 cells for expression of the hallmark proteins of Alzheimer's disease: soluble APPα, soluble APPβ, Arβ, and membrane-bound full length APP (APP-FL). […] Since it was shown that broad HDAC inhibition results in a decrease of AR and an increase of soluble APPα [41] we tested both cell lines for the effect of application of SAHA (suberoylanilide hydroxamic acid or vorinostat), a pan-HDAC inhibitor [42].

[5] = system: sAPPα released from 7WD10 cells (CHO cells stably expressing APP751); experiment: AlphaLISA sAPPα release assay (pilot HTS); format: cell-based
Experimental: (1). The pilot screen was performed using five 384 well plates. […] FDA approved oncology set was screened at 10 μM final assay concentration, while thiazole derivatives were screened at 5 μM. Seven hits from thiazole derivatives were identified using Ave+3SD rule (45) as a nominal cutoff for hit determination (FIG. 1.1 (bottom)). The hits represented a novel piperazine thiazole chemotype (FIG. 1.2).
Pilot screen of AlphaLISA sAPPα release assay. 8 μL of assay media (DMEM supplemented with 10% FBS and 1× Penicillin/Streptomycin) containing 20,000 cells were added to all wells of the assay plate, except column 1 where only media was added. Plates were incubated for 4 h at 37° C., 5% CO2, 95% RH after which 80 nL of test compounds in DMSO or DMSO alone were added to respective wells using a pin tool device (VP Scientific, San Diego). After 24 h of incubation at 37° C., 5% CO2, 95% RH, sAPPα AlphaLISA beads were added in 10 μL of buffer, equilibrated for 1 h, and AlphaLISA signal was measured using a Biotek H4 Synergy microplate reader (Biotek Inc). Three parameters were calculated on a per-plate basis: (a) the signal-to-background ratio (S/B); (b) the coefficient for variation [CV; CV=(standard deviation/mean)×100)] for all compound test wells; and (c) the Z′-factor [31]. Nominally active compounds from the pilot screen were determined using mean plus 3 times the standard deviation (Mean+3SD) was used as the cut-off.
In the absence of known pharmacological agents capable of inducing an increase of sAPPα release, we tested a small molecule (FIG. 2.4A insert, compound 1 in [2]) shown to decrease Aβ release. It was shown that decrease of Aβ release could be accompanied by the increase of soluble APPα, which has a neuroprotective effect. Compound 1 was tested using 20,000 cells/well in the range of 1.2-100 μM using 3-fold serial dilutions and 24 h incubation as an assay endpoint. Increase of sAPPα release was observed only in wells where 100 μM of compound 1 was added either with or without FBS (FIG. 2.4A). Viability of cells was also tested in the presence of 1.2-100 μM of compound 1 to ascertain that the increase of sAPPα release is not due to excessive cell death. Consistent with the above described results, cells were less viable in the absence of FBS. In the presence of 1.2-33 μM of compound 1, cells were approximately 10% less viable than untreated control either with or without FBS (FIG. 2.4B).
To evaluate the ability of the assay to identify compounds that increase the release of sAPPα a pilot screen was conducted using FDA approved oncology set (n=101) and TPIMS heterocycles library (n=700). The pilot screen was performed using five 384 well plates. […]

[6] = system: sAPPα in supernatants of 7WD10 cells; experiment: Western blot sAPPα release assay, 7WD10 cells; format: cell-based; settings: 10 nM, 7WD10 supernatant
Experimental: (2). To ascertain that hits identified as a result of AlphaLISA assay are not due to artifacts of the detection system, the sAPPα levels were measured by Western blots as a secondary assay downstream of primary HTS to confirm hits or discard artifacts of the AlphaLISA assay. The assay was performed using a range of concentrations of hit compounds (10-5,000 nM). A hit compound named thiazole piperazine #244 (THPI-244) and THPI-326 induced dose-dependent increase of sAPPα in supernatants of 7WD10 cells (FIG. 1.3). […] Since compound THPI-244 increased sAPPα levels more than THPI-326, we focused on THPI-244 for further validation.
as §2, with “To detect APP-FL holoprotein and C-terminal fragments (CTFs, CT15 antibody), the cells were lysed using lysis buffer (1% NP40) with complete protease inhibitor mix (Sigma) supplemented with sodium vanadate and microcystine.” left out

TrkA = TrkA (Homo sapiens, UniProt P04629); experiment: Table of THPI-244 analogs: TrkA increase
human sAPPα = experiment: sAPPα release ELISA, 7WD10 cells; format: cell-based; settings: 24 h
Experimental: Starting from p-methylbenzhydrylamine hydrochloride (MBHA.HCl) resin; we developed different approaches toward the diversity oriented solid-phase parallel synthesis of different aminothiazole compounds 1-6 (Scheme 1) (Micheals, H A et al., 2014, ACS Comb. Sci. 16, 1-4; Nefzi, A et al., 2010, J. Org. Chem. 75, 7939-7941). 575 thiazole compounds were synthesized and were tested for sAPPα increasing activity using CHO cells stably expressing APP751wt. For initial screenings we used a cell-based human sAPPα ELISA kit (cat #27734, IBL Co., ltd, Japan) following instructions from the manufacturer. The method involves sandwich ELISA and use of two specific antibodies and tetra methyl benzidine as a coloring agent. […]
sAPPα and Aβ40 release ELISA assay. […] The principle of the method is based on the use of tetra methyl benzidine (TMB) as a chromogen and the strength of the generated color is proportional to the quantities of human sAPPα. […] Plates were incubated with chromogen solution for 30 minutes, and read at 450 nm after adding stop solution. Levels of Aβ40 in the CM treated with different concentrations of compound 1 as detailed above were measured by sandwich ELISA exactly as described previously. Aβ40 was captured with Ab9 antibody (epitope, 1-16 of Aβ40) and detected with horseradish peroxidase-conjugated Ab13.1.1 antibody (epitope, 35-40 of Aβ40).

Sequence of TrkA (P04629 33-796, species assumed): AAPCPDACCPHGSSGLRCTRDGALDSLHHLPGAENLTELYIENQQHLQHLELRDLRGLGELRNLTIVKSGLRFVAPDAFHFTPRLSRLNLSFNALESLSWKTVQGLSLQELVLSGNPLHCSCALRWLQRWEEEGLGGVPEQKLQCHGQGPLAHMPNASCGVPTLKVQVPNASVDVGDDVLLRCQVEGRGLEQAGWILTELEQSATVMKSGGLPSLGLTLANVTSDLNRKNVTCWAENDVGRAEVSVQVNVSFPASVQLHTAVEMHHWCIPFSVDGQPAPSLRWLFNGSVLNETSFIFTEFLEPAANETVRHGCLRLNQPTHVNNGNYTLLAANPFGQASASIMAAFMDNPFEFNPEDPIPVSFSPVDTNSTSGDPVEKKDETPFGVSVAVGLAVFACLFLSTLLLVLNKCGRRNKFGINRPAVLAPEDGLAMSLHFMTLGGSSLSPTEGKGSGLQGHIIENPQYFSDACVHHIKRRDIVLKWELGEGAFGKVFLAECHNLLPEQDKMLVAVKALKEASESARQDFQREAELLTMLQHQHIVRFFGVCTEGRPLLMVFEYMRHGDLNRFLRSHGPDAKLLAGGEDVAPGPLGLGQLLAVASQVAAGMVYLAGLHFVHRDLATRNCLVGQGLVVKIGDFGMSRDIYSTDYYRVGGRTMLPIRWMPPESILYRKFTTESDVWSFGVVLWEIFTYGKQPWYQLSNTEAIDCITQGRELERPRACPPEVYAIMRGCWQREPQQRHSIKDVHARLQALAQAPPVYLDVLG

Q: With CCC/C=C/C=C/C(=O)O[C@H]1/C(=C/C(=O)OC)C[C@H]2C[C@H]([C@@H](C)O)OC(=O)C[C@H](O)C[C@@H]3C[C@H](OC(C)=O)C(C)(C)[C@](O)(C[C@@H]4C/C(=C/C(=O)OC)C[C@H](/C=C/C(C)(C)[C@]1(O)O2)O4)O3 [Bryostatin, reference compound] as the compound, how does the “effect on sAPPα release” value (sAPPα [1]) read?
A: increased sAPPα at low nM concentrations, but then decreased levels dose-dependently

Q: What about the “lowest concentration with significant increase of sAPPα” value (sAPPα [1]) of the same compound?
A: 10 nM

Q: What about the “lowest concentration with significant decrease of Aβ42” value (Aβ42) of the same compound?
A: 10 nM

Q: And the “lowest concentration with significant increase of sAPPα” value (sAPPα [2])?
A: 10 nM

Q: How did the “change of Aβ” value [3] turn out when O=C(CCCCCCC(=O)Nc1ccccc1)NO [SAHA, suberoylanilide hydroxamic acid] was run?
A: decrease

Q: And the “change of Aβ” value [4]?
A: decrease

Q: Which results are given for CCC(C)C(=O)N1CCN(Cc2csc(NC[C@H](Cc3ccc(O)cc3)NC(=O)Cc3ccccc3)n2)CC1 (stereo partly drawn) [THPI-326]?
A: increase of Alpha signal (sAPPα release) ([5]; 5 μM, 7WD10 cells, 24 h): ~2 fold; increase of sAPPα over untreated control cells (Western blot) [6]: 2 fold

Q: Which “% TrkA ⬆” value (TrkA) does the source give for Cc1cnc(C(=O)N[C@H](CNc2nc(CN3CCNCC3)cs2)c2ccccc2)cn1 [TPI-2336-55] here?
A: 69%

Q: Which “% TrkA ⬆” value (TrkA) does the source give for c1ccc(CCNc2nc(CN3CCOCC3)cs2)cc1 [TPI-2336-99] here?
A: 51%

Q: How did the “% TrkA ⬆” value (TrkA) turn out when c1ccc(CCNc2nc(CN3CCCCC3)cs2)cc1 [TPI-2336-100] was run?
A: 54%

Q: O=C(NCCSCc1cccc(Cl)c1)c1c(Cl)cccc1Cl [compound 1, 2,6-dichloro-N-{2-[(3-chlorobenzyl)thio]ethyl}benzamide, reference compound] was tested. Which “increase of AlphaLISA signal” value ([5]; 100 μM compound 1) did it give?
A: 2 fold

Q: What about the “concentration at which increase of sAPPα release was observed” value ([5]; range 1.2-100 μM, 24 h, with or without FBS) of the same compound?
A: 100 µM

Q: And the “increase of sAPPα over untreated control cells (ELISA)” value (human sAPPα; 100 μM)?
A: 2 fold

Q: And the “maximal increase of sAPPα (ELISA)” value (human sAPPα; 150 μM)?
A: 3 fold
